As a reminder, the IC50 is the concentration that gives 50% inhibition.

The first assay deals with T1, human eIF4E protein (Homo sapiens, UniProt P06730).
T1 construct: purchased Novus NBP-45314
T1 sequence (P06730 whole entry): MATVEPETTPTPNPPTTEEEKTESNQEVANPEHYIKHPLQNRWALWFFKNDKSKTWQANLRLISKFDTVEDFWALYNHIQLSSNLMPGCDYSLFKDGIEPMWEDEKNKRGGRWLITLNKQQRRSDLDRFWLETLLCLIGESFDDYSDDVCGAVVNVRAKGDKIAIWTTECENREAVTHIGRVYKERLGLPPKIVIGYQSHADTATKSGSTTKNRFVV
The assay can be described thus: Biochemical competitive binding assay (TR-FRET competition, EDA-m7GDP-ATTO-647N probe). Particulars: read-out: hEIF4E TR-FRET IC50. In a few lines: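 IC50 values come from 4-parameter fits of the normalized 665/620 nm TR-FRET ratio. Compound was first incubated 15 min with 4 nM recombinant His-eIF4E bound to 2.5 nM Eu-anti-His antibody, then 15 min with 5 nM m7GDP-ATTO-647N tracer, in pH 7.5 HEPES buffer with 100 mM KCl, Tween-20 and BSA.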
Consider `Cc1cc(-c2cc(Cl)ccc2OCCn2c(C)nc3c(c2=O)CC(CN)(N2CCC(OC(F)(F)F)CC2)CC3)c2scc(C(=O)O)c2n1` (single isomer, unassigned) [Compound 622], for which the IC50 is below 0.1 µM.

As for `COC1CCN(C2(C)CCc3nc(C)n(CCOc4ccc(Cl)cc4-c4cc(C)nc5c(C(=O)O)csc45)c(=O)c3C2)CC1` (stereo not shown) [Compound 114], the IC50 is below 0.1 µM.

Regarding `Cc1cc(-c2cc(Cl)ccc2OCCn2c(C)nc3c(c2=O)C[C@@H](N2CCC(CC(F)(F)F)CC2)CC3)c2scc(C(=O)O)c2n1` (single isomer, unassigned) [Compound 106], the half-inhibitory concentration (IC50) was below 0.1 µM.

In the case of `Cc1cc(-c2cc(Cl)ccc2OCCn2c(C)nc3c(c2=O)C[C@@H](N2CC[C@@H](OC(F)(F)F)C(F)(F)C2)CC3)c2scc(C(=O)O)c2n1` (single isomer, unassigned) [Compound 405], the IC50 is below 0.1 µM.

`Cc1cc(-c2cc(Cl)ccc2OCCn2c(C)nc3c(c2=O)C[C@H](N2CCC(CC(F)(F)F)CC2)CC3)c2scc(C(=O)O)c2n1` (single isomer, unassigned) [Compound 107]: the IC50 is below 0.1 µM.

For `Cc1cc(-c2cc(Cl)ccc2OCCn2c(C)nc3c(c2=O)C[C@H](N2CCCC[C@@H]2C(F)(F)F)CC32CC2)c2scc(C(=O)O)c2n1` (single isomer, unassigned) [Compound 624], the 50% inhibitory concentration (IC50) was in the range of 0.1 to 0.5 µM.

On to `Cc1cc(-c2cc(Cl)ccc2OCCn2c(C)nc3c(c2=O)CC(N2CCC(OC(F)(F)F)CC2)CC3)c2scc(C(=O)O)c2n1` (single isomer, unassigned) [Compound 135], for which the half-inhibitory concentration (IC50) is below 0.1 µM.

Take `Cc1cc(-c2cc(Cl)ccc2OCCn2c(C(F)(F)F)nc3c(c2=O)CC(N2CCC(OC(F)(F)F)CC2)CC3)c2scc(C(=O)O)c2n1` (single isomer, unassigned) [Compound 631]: the concentration for half-maximal inhibition (IC50) lay in the range of 0.5 to 5 µM.

In the case of `COC1CCN(C2CCc3nc(C)n(CC#Cc4ccc(Cl)cc4-c4ccnc5c(C(=O)NS(C)(=O)=O)csc45)c(=O)c3C2)CC1` (single isomer, unassigned) [Compound 414], the half-inhibitory concentration (IC50) is below 0.1 µM.

Consider `Cc1cc(-c2cc(Cl)ccc2OCCn2c(C)nc3c(c2=O)CC(C)(N(C)CC2CC(F)(F)C2)CC3)c2scc(C(=O)O)c2n1` (single isomer, unassigned) [Compound 600], for which the IC50 is below 0.1 µM.

In the case of `Cc1cc(-c2cc(Cl)ccc2OCCn2c(C)nc3c(c2=O)C[C@@H](N2CCC4(CCCO4)CC2)CC3)c2scc(C(=O)O)c2n1` (single isomer, unassigned) [Compound 421], the IC50 was below 0.1 µM.

Consider `Cc1cc(-c2cc(Cl)ccc2OCCn2c(C)nc3c(c2=O)CC(N2CCC4(CN(CC(F)(F)F)CC(F)(F)C4)C2)CC3)c2scc(C(=O)O)c2n1` (single isomer, unassigned) [Compound 511], for which the half-maximal inhibitory concentration (IC50) is below 0.1 µM.

`Cc1cc(-c2cc(Cl)ccc2OCCn2c(C)nc3c(c2=O)C[C@@H](N2CC[C@H](OC(F)(F)F)C2)CC3)c2scc(C(=O)O)c2n1` (single isomer, unassigned) [Compound 388]: the half-inhibitory concentration (IC50) was below 0.1 µM.

As for `Cc1cc(-c2cc(Cl)ccc2OCCn2c(C)nc3c(c2=O)C[C@H](N2C[C@H]4CC[C@@H]2CC4OC(F)(F)F)CC3)c2scc(C(=O)O)c2n1` (single isomer, unassigned) [Compound 499], the IC50 was below 0.1 µM.

`Cc1cc(-c2cc(Cl)ccc2OCCn2c(C)nc3c(c2=O)C[C@H](N2CCC[C@@]4(C2)CC4(F)F)CC32CC2)c2scc(C(=O)O)c2n1` (single isomer, unassigned) [Compound 580]: the half-inhibitory concentration (IC50) was below 0.1 µM.

For `Cc1cc(-c2cc(Cl)ccc2OCCn2c(C)nc3c(c2=O)C[C@@H](N2CCCC(F)(F)CC2)CC3)c2scc(C(=O)O)c2n1` (single isomer, unassigned) [Compound 402], the IC50 is below 0.1 µM.

Turning to `COC1(C(F)(F)F)CCN([C@@H]2CCc3nc(C)n(CCOc4ccc(Cl)cc4-c4cc(C)nc5c(C(=O)O)csc45)c(=O)c3C2)CC1` (single isomer, unassigned) [Compound 450], the half-maximal inhibitory concentration (IC50) is below 0.1 µM.

In another assay the test system is COLO 205 colorectal tumor cells. Briefly: Tumor cell viability inhibition assay (CellTiter-Glo 2.0, 72 hours). It is filed as cell-based. Particulars: COLO 205 cell viability. In a few lines:
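IC50 derived by 4-parameter fitting after normalizing luminescence to DMSO and max-inhibition wells. Compounds tested as 11 concentrations in 4-fold steps on COLO 205 cells seeded at 1500 per well in RPMI-1640/10% FBS; ATP content measured with CellTiter-Glo 2.0 after 72 h.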
On the technique in general: Cellular ATP, detected with luciferase, serves as a proxy for viable cell number.
In turn, `Cc1cc(-c2cc(Cl)ccc2OCCn2c(C(F)(F)F)nc3c(c2=O)CC(N2CCC(OC(F)(F)F)CC2)CC3)c2scc(C(=O)O)c2n1` (single isomer, unassigned) [Compound 631] showed an IC50 above 20 µM.

In the case of `Cc1cc(-c2cc(Cl)ccc2OCCn2c(C)nc3c(c2=O)CC(C)(N(C)CC2CC(F)(F)C2)CC3)c2scc(C(=O)O)c2n1` (single isomer, unassigned) [Compound 600], the IC50 is below 5 µM.

Still in this assay, the particulars now being: Homo sapiens, COLO 205, 72 h, COLO 205 cell viability.
As for `Cc1cc(-c2cc(Cl)ccc2OCCn2c(C)nc3c(c2=O)CC(CN)(N2CCC(OC(F)(F)F)CC2)CC3)c2scc(C(=O)O)c2n1` (single isomer, unassigned) [Compound 622], the IC50 is above 20 µM.

In turn, `COC1CCN(C2(C)CCc3nc(C)n(CCOc4ccc(Cl)cc4-c4cc(C)nc5c(C(=O)O)csc45)c(=O)c3C2)CC1` (stereo not shown) [Compound 114] showed an IC50 below 5 µM.

The molecule `Cc1cc(-c2cc(Cl)ccc2OCCn2c(C)nc3c(c2=O)C[C@@H](N2CCC(CC(F)(F)F)CC2)CC3)c2scc(C(=O)O)c2n1` (single isomer, unassigned) [Compound 106] returned an IC50 below 5 µM.

The molecule `Cc1cc(-c2cc(Cl)ccc2OCCn2c(C)nc3c(c2=O)C[C@@H](N2CC[C@@H](OC(F)(F)F)C(F)(F)C2)CC3)c2scc(C(=O)O)c2n1` (single isomer, unassigned) [Compound 405] gave a half-inhibitory concentration (IC50) of 5 to 20 µM.

In turn, `Cc1cc(-c2cc(Cl)ccc2OCCn2c(C)nc3c(c2=O)C[C@H](N2CCC(CC(F)(F)F)CC2)CC3)c2scc(C(=O)O)c2n1` (single isomer, unassigned) [Compound 107] displayed a concentration for half-maximal inhibition (IC50) below 5 µM.

In turn, `Cc1cc(-c2cc(Cl)ccc2OCCn2c(C)nc3c(c2=O)C[C@H](N2CCCC[C@@H]2C(F)(F)F)CC32CC2)c2scc(C(=O)O)c2n1` (single isomer, unassigned) [Compound 624] registered a 50% inhibitory concentration (IC50) of 5 to 20 µM.

`Cc1cc(-c2cc(Cl)ccc2OCCn2c(C)nc3c(c2=O)CC(N2CCC(OC(F)(F)F)CC2)CC3)c2scc(C(=O)O)c2n1` (single isomer, unassigned) [Compound 135] came in with a 50% inhibitory concentration (IC50) below 5 µM.

`COC1CCN(C2CCc3nc(C)n(CC#Cc4ccc(Cl)cc4-c4ccnc5c(C(=O)NS(C)(=O)=O)csc45)c(=O)c3C2)CC1` (single isomer, unassigned) [Compound 414] came in with a half-inhibitory concentration (IC50) below 5 µM.

In the case of `Cc1cc(-c2cc(Cl)ccc2OCCn2c(C)nc3c(c2=O)C[C@@H](N2CCC4(CCCO4)CC2)CC3)c2scc(C(=O)O)c2n1` (single isomer, unassigned) [Compound 421], the IC50 is below 5 µM.

The molecule `Cc1cc(-c2cc(Cl)ccc2OCCn2c(C)nc3c(c2=O)CC(N2CCC4(CN(CC(F)(F)F)CC(F)(F)C4)C2)CC3)c2scc(C(=O)O)c2n1` (single isomer, unassigned) [Compound 511] registered a 50% inhibitory concentration (IC50) below 5 µM.

`Cc1cc(-c2cc(Cl)ccc2OCCn2c(C)nc3c(c2=O)C[C@@H](N2CC[C@H](OC(F)(F)F)C2)CC3)c2scc(C(=O)O)c2n1` (single isomer, unassigned) [Compound 388] gave a 50% inhibitory concentration (IC50) below 5 µM.

`Cc1cc(-c2cc(Cl)ccc2OCCn2c(C)nc3c(c2=O)C[C@H](N2C[C@H]4CC[C@@H]2CC4OC(F)(F)F)CC3)c2scc(C(=O)O)c2n1` (single isomer, unassigned) [Compound 499] showed an IC50 below 5 µM.

Consider `Cc1cc(-c2cc(Cl)ccc2OCCn2c(C)nc3c(c2=O)C[C@H](N2CCC[C@@]4(C2)CC4(F)F)CC32CC2)c2scc(C(=O)O)c2n1` (single isomer, unassigned) [Compound 580], for which the IC50 was below 5 µM.

On to `Cc1cc(-c2cc(Cl)ccc2OCCn2c(C)nc3c(c2=O)C[C@@H](N2CCCC(F)(F)CC2)CC3)c2scc(C(=O)O)c2n1` (single isomer, unassigned) [Compound 402], for which the concentration for half-maximal inhibition (IC50) was below 5 µM.

As for `COC1(C(F)(F)F)CCN([C@@H]2CCc3nc(C)n(CCOc4ccc(Cl)cc4-c4cc(C)nc5c(C(=O)O)csc45)c(=O)c3C2)CC1` (single isomer, unassigned) [Compound 450], the IC50 is below 5 µM.

The values above are taken from US20240246918A1, “COMPOUNDS AND COMPOSITIONS AS EIF4E INHIBITORS AND THE USES THEREOF” (Ribometrix, Inc., priority 2022, published 2024).
